Patent EP1147080B1 (Wyeth Holdings Corporation, priority 1999, dated 2000)

Assays:
[1] = target: TNF-α converting enzyme (TACE) (Homo sapiens, UniProt P78536); assay: Test procedure for measuring TACE inhibition (fluorescent peptidyl substrate); format: biochemical; settings: Table 1
MMP-1 = target: T1, MMP-1 (Homo sapiens, UniProt P03956); assay: MMP-1 inhibition (thiopeptide or fluorescent peptide substrate)
T1 sequence (P03956 100-469): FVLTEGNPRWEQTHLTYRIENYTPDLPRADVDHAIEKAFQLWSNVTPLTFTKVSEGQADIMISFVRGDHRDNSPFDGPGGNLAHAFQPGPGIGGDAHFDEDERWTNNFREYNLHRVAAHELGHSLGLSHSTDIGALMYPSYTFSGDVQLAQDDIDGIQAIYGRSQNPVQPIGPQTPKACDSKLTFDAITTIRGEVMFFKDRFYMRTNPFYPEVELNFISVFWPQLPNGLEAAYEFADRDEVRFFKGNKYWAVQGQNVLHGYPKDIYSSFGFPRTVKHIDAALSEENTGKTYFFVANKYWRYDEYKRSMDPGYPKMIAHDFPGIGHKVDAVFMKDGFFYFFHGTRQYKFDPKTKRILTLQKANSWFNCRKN
Description: The enzyme activity is measured by the rate of the color increase. The thiopeptide substrate is made up fresh as a 20 mM stock in 100% DMSO and the DTNB is dissolved in 100% DMSO as a 100 mM stock and stored in the dark at room temperature. Both the substrate and DTNB are diluted together to 1 mM with substrate buffer (50 mM HEPES pH 7.5, 5 mM CaCl2) before use. The stock of enzyme is diluted with buffer (50 mM HEPES, pH 7.5, 5 mM CaCl2, 0.02% Brij) to the desired final concentration.
Alternatively, a fluorescent peptide substrate is used. In this test procedure, the peptide substrate contains a fluorescent group and a quenching group. Upon cleavage of the substrate by an MMP, the fluorescence that is generated is quantitated on the fluorescence plate reader. The assay is run in HCBC assay buffer (50mM HEPES, pH 7.0, 5 mM Ca^+2, 0.02% Brij, 0.5% Cysteine), with human recombinant MMP-1, MMP-9, or MMP-13. The substrate is dissolved in methanol and stored frozen in 1 mM aliquots. For the assay, substrate and enzymes are diluted in HCBC buffer to the desired concentrations. Compounds are added to the 96 well plate containing enzyme and the reaction is started by the addition of substrate.
For either the thiopeptide or fluorescent peptide test procedures, the slope of the line is calculated and represents the reaction rate. […] The mean (x±sem) of the control rate is calculated and compared for statistical significance (p<0.05) with drug-treated rates using Dunnett's multiple comparison test.

Sequence of TNF-α converting enzyme (TACE) (P78536 215-824): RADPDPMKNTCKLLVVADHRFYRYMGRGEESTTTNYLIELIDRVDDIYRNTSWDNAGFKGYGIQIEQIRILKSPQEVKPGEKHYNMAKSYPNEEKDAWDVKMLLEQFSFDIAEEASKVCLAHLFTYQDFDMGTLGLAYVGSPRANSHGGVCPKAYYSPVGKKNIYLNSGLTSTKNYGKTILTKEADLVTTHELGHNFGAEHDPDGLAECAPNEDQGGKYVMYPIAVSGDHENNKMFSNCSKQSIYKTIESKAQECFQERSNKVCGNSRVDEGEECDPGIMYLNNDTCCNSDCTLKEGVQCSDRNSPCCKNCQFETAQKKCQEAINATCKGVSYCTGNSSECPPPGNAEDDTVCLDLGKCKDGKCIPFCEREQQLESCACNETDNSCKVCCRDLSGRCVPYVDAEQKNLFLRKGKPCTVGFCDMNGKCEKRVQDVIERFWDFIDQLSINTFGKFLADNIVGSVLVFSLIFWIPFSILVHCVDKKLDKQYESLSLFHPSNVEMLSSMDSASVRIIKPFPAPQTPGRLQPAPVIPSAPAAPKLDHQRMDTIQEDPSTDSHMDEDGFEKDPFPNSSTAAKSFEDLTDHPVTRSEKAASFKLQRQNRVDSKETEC

Row | Compound | IC50 [1] [µM] | IC50 (MMP-1) [µM]
1 | CC#CCOc1ccc([S+]([O-])C(CCCCNC(=O)CNC(=O)c2cccn2C)C(=O)NO)cc1 (stereo not drawn) [Example 61, 1-Methyl-1H-pyrrole-2-carboxylic acid {[5-(4-but-2-ynyloxy-benzenesulfinyl)-5-hydroxycarbamoylpentyl-carbamoyl]-methyl}-amide] | 0.0225 | 5.6
2 | CC#CCOc1ccc([S+]([O-])C(CCCCNC(=O)CNC(=O)Cc2ccc(Cl)c(Cl)c2)C(=O)NO)cc1 (stereo not drawn) [Example 57] | 0.0244 | 4.6
3 | CC#CCOc1ccc([S+]([O-])C(CCCCNC(=O)C(c2ccccc2)c2ccccc2)C(=O)NO)cc1 (stereo not drawn) [Example 30, 2-(4-But-2-ynyloxy-benzenesulfinyl)-6-diphenylacetylamino-hexanoic acid hydroxyamide] | 0.0201 | 3.3
4 | CC#CCOc1ccc([S+]([O-])C(CCCCNC(=O)CNC(=O)C2c3ccccc3Oc3ccccc32)C(=O)NO)cc1 (stereo not drawn) [Example 59] | 0.0226 | 3.4
5 | CC#CCOc1ccc([S+]([O-])C(CCCCNC(=O)CNC(=O)c2ccccc2CCc2ccccc2)C(=O)NO)cc1 (stereo not drawn) [Example 56] | 0.0219 | 3.9
6 | CC#CCOc1ccc([S+]([O-])C(CCCCNC(=O)c2ccc3ccccc3n2)C(=O)NO)cc1 (mixture of isomers) [Example 23, Quinoline-2-carboxylic acid [5-(4-but-2-ynyloxy-benzenesulfinyl)-5-hydroxycarbamoyl-pentyl]-amide] | 0.0205 | 3.3
7 | CC#CCOc1ccc(OCC(=O)NO)cc1 [Example 11, 2-(4-But-2-ynyloxy-phenoxy)-N-hydroxy-acetamide] | – | 10
8 | CC#CCOc1ccc([S+]([O-])C(CCCCNC(=O)CNC(=O)c2cnc3ccccc3c2)C(=O)NO)cc1 (stereo not drawn) [Example 53] | 0.0152 | 4
9 | CC#CCOc1ccc(CCCC(=O)NO)cc1 [Example 12, 4-(4-But-2-ynyloxy-phenyl)-N-hydroxy-butyramide] | – | 10
10 | CC#CCOc1ccc(SC(CCCCNC(=O)C(c2ccccc2)c2ccccc2)C(=O)NO)cc1 (stereo not drawn) [Example 20, 2-(4-But-2-ynyloxy-phenylsulfanyl)-6-diphenylacetylamino-hexanoic acid hydroxyamide] | 0.0886 | –
11 | CC#CCOc1ccc(S(=O)(=O)C(CCCCNC(=O)c2nccc3ccccc23)C(=O)NO)cc1 (stereo not drawn) [Example 41, Isoquinoline-1-carboxylic acid [5-(4-but-2-ynyloxy-benzenesulfonyl)-5-hydroxycarbamoyl-pentyl]-amide] | 0.0373 | –
12 | CC#CCOc1ccc([S+]([O-])C(CCCCNC(=O)CN2C(=O)c3ccccc3C2=O)C(=O)NO)cc1 (stereo not drawn) [Example 24, 2-(4-But-2-ynyloxy-benzenesulfinyl)-6-[2-(1,3-dioxo-1,3-dihydro-isoindol-2-yl)-acetylamino]-hexanoic acid hydroxyamide] | 0.03 | –
13 | 2-(4-But-2-ynyloxy-benzenesulfinyl)-6-diphenylacetylamino-hexanoic acid hydroxyamide [Example 60] | 0.0409 | –
14 | CC#CCOc1ccc([S+]([O-])C(CCCCNC(=O)CNC(=O)CN2C(=O)c3ccccc3C2=O)C(=O)NO)cc1 (stereo not drawn) [Example 55, 2-(4-But-2-ynyloxy-benzenesulfinyl)-6-[2-(1,3-dioxo-1,3-dihydro-isoindol-2-yl)-acetylammo]-hexanoic acid hydroxyamide] | 0.0385 | –
15 | CC#CCOc1ccc(SC(CCCCNC(=O)CNC(=O)c2ccccc2CCc2ccccc2)C(=O)NO)cc1 (stereo not drawn) [Example 46] | 0.0842 | –
16 | CC#CCOc1ccc(S(=O)(=O)C(CCCCNC(=O)c2ccc3ccccc3n2)C(=O)NO)cc1 (stereo not drawn) [Example 35, Quinoline-2-carboxylic acid [5-(4-but-2-ynyloxy-benzenesulfonyl)-5-hydroxycarbamoylpentyl]-amide] | 0.0683 | –
17 | CC#CCOc1ccc(SC(CCCCNC(=O)Cc2csc3ccccc23)C(=O)NO)cc1 (stereo not drawn) [Example 22, 6-(2-Benzo[b]thiophen-3-yl-acetylamino)-2-(4-but-2-ynyloxy-phenylsulfanyl)-hexanoic acid hydroxyamide] | 0.0328 | –
